Measurements from publication PMC4454674, “Functional Coupling of Duplex Translocation to DNA Cleavage in a Type I Restriction Enzyme” (PLoS ONE, 2015).

Molecular target: T1, EcoR124I (HsdR reconstituted with HsdS-HsdM2 methylase) (Escherichia coli, UniProt P10486)
T1 construct: holoenzyme reconstituted from purified HsdR (pTrcR124) and EcoR124I methylase HsdS-HsdM2 (pJS4M, JM109(DE3)), on plasmid DNA with one site; with Type I restriction enzyme EcoR124I/EcoR124II methylase subunit; Type I restriction enzyme EcoR124I specificity subunit
T1 sequence (P10486 1-1038): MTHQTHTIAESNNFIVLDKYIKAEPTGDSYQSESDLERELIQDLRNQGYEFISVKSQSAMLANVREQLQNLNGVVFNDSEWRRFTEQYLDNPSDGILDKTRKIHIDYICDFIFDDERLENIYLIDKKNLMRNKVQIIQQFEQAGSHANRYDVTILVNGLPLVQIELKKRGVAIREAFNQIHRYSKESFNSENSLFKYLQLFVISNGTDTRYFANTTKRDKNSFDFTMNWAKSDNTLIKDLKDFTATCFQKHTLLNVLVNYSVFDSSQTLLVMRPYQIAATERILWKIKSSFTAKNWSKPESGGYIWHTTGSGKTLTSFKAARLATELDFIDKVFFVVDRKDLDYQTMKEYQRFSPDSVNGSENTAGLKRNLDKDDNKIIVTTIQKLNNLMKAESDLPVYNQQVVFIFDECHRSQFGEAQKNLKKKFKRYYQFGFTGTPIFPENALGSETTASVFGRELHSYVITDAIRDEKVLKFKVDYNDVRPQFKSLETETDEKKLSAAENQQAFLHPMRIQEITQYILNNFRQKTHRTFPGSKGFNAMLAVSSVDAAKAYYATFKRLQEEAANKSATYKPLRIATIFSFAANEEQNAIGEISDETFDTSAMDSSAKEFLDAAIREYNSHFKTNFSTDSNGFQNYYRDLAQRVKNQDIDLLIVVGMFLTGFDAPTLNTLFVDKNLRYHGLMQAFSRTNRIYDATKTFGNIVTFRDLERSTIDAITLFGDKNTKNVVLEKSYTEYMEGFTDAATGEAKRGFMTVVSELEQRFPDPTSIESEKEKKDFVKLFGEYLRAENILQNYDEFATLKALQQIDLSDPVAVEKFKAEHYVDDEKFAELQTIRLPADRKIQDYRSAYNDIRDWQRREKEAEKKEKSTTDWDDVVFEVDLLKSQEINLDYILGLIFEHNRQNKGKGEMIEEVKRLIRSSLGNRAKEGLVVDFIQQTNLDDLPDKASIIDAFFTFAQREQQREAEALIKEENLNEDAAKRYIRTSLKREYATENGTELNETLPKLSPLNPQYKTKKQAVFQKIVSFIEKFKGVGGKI
T1 sequence (P10485 1-404 partner): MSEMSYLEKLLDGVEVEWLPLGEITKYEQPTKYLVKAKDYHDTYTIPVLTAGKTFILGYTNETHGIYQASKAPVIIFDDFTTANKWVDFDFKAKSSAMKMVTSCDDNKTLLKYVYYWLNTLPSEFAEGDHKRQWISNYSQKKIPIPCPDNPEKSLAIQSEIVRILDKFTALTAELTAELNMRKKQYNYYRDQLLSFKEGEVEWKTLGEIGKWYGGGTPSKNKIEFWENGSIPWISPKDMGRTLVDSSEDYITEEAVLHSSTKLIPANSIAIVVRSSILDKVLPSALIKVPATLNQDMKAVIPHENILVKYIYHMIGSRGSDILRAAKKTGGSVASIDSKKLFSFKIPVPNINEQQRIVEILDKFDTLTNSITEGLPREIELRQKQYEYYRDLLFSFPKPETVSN
T1 sequence (P10484 1-520 partner): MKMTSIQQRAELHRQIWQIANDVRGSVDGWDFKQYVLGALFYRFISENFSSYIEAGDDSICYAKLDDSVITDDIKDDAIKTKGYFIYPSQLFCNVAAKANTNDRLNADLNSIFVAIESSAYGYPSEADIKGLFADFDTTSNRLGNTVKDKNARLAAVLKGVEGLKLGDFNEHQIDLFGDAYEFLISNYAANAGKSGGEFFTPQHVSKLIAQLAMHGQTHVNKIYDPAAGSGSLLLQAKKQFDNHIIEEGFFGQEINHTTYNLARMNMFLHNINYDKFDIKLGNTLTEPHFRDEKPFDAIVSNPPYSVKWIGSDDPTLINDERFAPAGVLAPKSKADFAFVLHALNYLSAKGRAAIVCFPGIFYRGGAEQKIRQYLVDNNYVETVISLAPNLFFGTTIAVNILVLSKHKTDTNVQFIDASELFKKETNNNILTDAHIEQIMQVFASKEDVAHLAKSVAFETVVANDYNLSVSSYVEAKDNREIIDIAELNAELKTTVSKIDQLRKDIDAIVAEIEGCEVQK
Assay: DNA-dependent ATPase, gamma-32P-ATP with TLC
Type: biochemical
Conditions: 2 mM ATP; 15 nM methylase, 90 nM HsdR, 90 nM plasmid DNA; 10 mM MgCl2; pH 7.9; 37 C; turnover only; gamma-32P-ATP tracer

## Nc1ncnc2c1ncn2[C@@H]1O[C@H](COP(=O)(O)OP(=O)(O)OP(=O)(O)O)[C@@H](O)[C@H]1O [ATP]
  DNA-dependent ATPase, gamma-32P-ATP with TLC: The results for the WT enzyme reproduce its previously reported ATPase activity
